The target in one experiment is T1, human EHMT2 913-1193 (Homo sapiens, UniProt Q96KQ7).
T1 sequence (Q96KQ7 913-1193): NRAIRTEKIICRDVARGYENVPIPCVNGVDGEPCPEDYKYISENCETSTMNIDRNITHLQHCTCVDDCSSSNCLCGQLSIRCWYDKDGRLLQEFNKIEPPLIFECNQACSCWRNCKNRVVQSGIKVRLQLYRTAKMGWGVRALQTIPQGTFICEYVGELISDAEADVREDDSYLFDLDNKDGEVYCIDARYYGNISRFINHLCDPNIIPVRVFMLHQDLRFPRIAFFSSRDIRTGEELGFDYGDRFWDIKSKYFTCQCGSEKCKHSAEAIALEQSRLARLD
The experiment is described as follows: EHMT2 enzyme assay on histone peptide substrate (3H-SAM SPA). The note with it: EHMT2 IC50, recombinant human EHMT2 913-1193, histone peptide substrate.

In the next experiment the target is T2, human EHMT1 982-1266 (Homo sapiens, UniProt Q9H9B1).
T2 sequence (Q9H9B1 982-1266): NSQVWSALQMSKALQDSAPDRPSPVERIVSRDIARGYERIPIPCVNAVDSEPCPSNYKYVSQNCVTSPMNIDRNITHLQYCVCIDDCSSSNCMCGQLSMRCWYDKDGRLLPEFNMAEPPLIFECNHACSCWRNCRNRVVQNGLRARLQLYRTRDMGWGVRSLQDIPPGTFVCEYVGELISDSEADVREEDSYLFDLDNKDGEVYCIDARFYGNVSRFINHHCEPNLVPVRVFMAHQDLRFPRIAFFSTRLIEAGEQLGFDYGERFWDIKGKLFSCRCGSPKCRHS
The experiment is described as follows: EHMT1 enzyme assay on histone peptide substrate (3H-SAM SPA). The note with it: EHMT1 IC50, recombinant human EHMT1 982-1266, histone peptide substrate.

The next experiment deals with H3K9me2 in HCT116 cells. The experiment can be described thus: HCT116 H3K9me2 in-cell western assay. In kind it is cell-based. The note with it: Homo sapiens, HCT-116, 72 h, HCT116 cells, 72 hours incubation; read-out: H3K9me2 ICW IC50. The method, boiled down: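 HCT116 cells (2,000/well) were treated for 72 h at 37° C, 5% CO2, with ten two-fold dilutions from 10 μM in duplicate. After PFA fixation, cells were stained overnight at 4° C with anti-H3K9me2, then with an 800 CW secondary plus DRAQ5.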

pIC50: −log10 of the molar value.

What is called pIC50 is the negative decadic logarithm of the IC50, by convention in mol/L.

For the molecule `[2H]C([2H])([2H])CNc1cc(C)nc(Nc2cc3c(c(C4=CCNCCC4)c2)OCC3)n1` [Compound 300], the pIC50 on human EHMT2 913-1193 is above 7.00; at human EHMT1 982-1266 it was above 7.00; in the experiment with H3K9me2 in HCT116 cells it was 6.30 to 7.00.
For `Cc1cc(NC2CCC2)nc(Nc2cc3c(c(C4=CCN(C)CCC4)c2)OCC3)n1` [Compound 318], the negative-log IC50 (pIC50) at human EHMT2 913-1193 is 5.70 to 6.30; at human EHMT1 982-1266 it was 6.30 to 7.00; in the experiment on H3K9me2 in HCT116 cells, 6.30 to 7.00.
Consider `CNc1nc(Nc2cc3c(c(C4=CCNCCC4)c2)OCO3)nc(C)c1F` [Compound 279], for which the pIC50 is 5.70 to 6.30 at human EHMT2 913-1193, 6.30 to 7.00 at human EHMT1 982-1266 and 6.30 to 7.00 with H3K9me2 in HCT116 cells.
For the molecule `[2H]C([2H])([2H])N1CC=C(c2cc(Nc3nc(C)cc(NC)n3)cc3c2OCC3)CCC1` [Compound 274], the pIC50 at human EHMT2 913-1193, on human EHMT1 982-1266 and with H3K9me2 in HCT116 cells was above 7.00 each time.
Take `[2H]Cc1nc(Nc2cc3c(c(C4=CCN(C)CCC4)c2F)OCC3)nc(NCC([2H])([2H])[2H])c1F` [Compound 222]: the values for the pIC50 at human EHMT2 913-1193, on human EHMT1 982-1266 and in the experiment with H3K9me2 in HCT116 cells were 5.70 to 6.30, 6.30 to 7.00 and 6.30 to 7.00, respectively.
For `CNc1cc(C)nc(Nc2c(F)c3c(c(C4=CCN(C)CCC4)c2F)OCC3)n1` [Compound 186], the pIC50 at human EHMT2 913-1193 is 5.70 to 6.30; on human EHMT1 982-1266, 6.30 to 7.00; with H3K9me2 in HCT116 cells it was 6.30 to 7.00.
Take `CNc1nc(Nc2cc3c(c(C4=CCN(C)CCC4)c2F)OCC3)nc(C)c1OC` [Compound 196]: the pIC50 on human EHMT2 913-1193 is 5.70 to 6.30; at human EHMT1 982-1266, 6.30 to 7.00; in the experiment with H3K9me2 in HCT116 cells, 6.30 to 7.00.
Regarding `CNc1nc(Nc2cc3c(c(C4=CCNCCC4)c2F)OCC3)nc(C)c1C` [Compound 223, N2-[6-fluoro-7-(2,3,4,7-tetrahydro-1H-azepin-5-yl)-2,3-dihydrobenzofuran-5-yl]-N4,5,6-trimethyl-pyrimidine-2,4-diamine], the pIC50 on human EHMT2 913-1193, at human EHMT1 982-1266 and in the experiment on H3K9me2 in HCT116 cells was above 7.00 each time.
Regarding `[2H]Cc1cc(NC)nc(Nc2cc3c(c(C4=CCN(C)CCC4)c2)OCCO3)n1` [Compound 266], the pIC50 at human EHMT2 913-1193 was 6.30 to 7.00; at human EHMT1 982-1266 it was above 7.00; in the experiment with H3K9me2 in HCT116 cells, above 7.00.
For the molecule `[2H]Cc1cc(NC)nc(Nc2cc3c(c(C4=CCN(C)CCC4)c2)OCC3)n1` [Compound 303], the pIC50 at human EHMT2 913-1193, on human EHMT1 982-1266 and with H3K9me2 in HCT116 cells was above 7.00 each time.
For the molecule `[2H]Cc1cc(NC([2H])([2H])[2H])nc(Nc2cc3c(c(C4=CCNCCC4)c2)OCCC3)n1` [Compound 250], the pIC50 on human EHMT2 913-1193, on human EHMT1 982-1266 and with H3K9me2 in HCT116 cells was above 7.00 throughout.
On to `CNc1cc(C)nc(Nc2cc3c(c(C4=CCN(C)CCC4)c2)OC(F)(F)O3)n1` [Compound 156, N2-[2,2-difluoro-7-(1-methyl-2,3,4,7-tetrahydroazepin-5-yl)-1,3-benzodioxol-5-yl]-N4,6-dimethyl-pyrimidine-2,4-diamine], for which the pIC50 on human EHMT2 913-1193 is 6.30 to 7.00; on human EHMT1 982-1266 it was above 7.00; in the experiment on H3K9me2 in HCT116 cells it was 6.30 to 7.00.
In the case of `CNc1cc(C)nc(Nc2cc3c(c(C4=CCCNCC4C)c2)OCC3)n1` (stereo not drawn) [Compound 307], the negative-log IC50 (pIC50) is 5.70 to 6.30 at human EHMT2 913-1193, 6.30 to 7.00 at human EHMT1 982-1266 and 5.70 to 6.30 in the experiment with H3K9me2 in HCT116 cells.
Consider `[2H]Cc1cc(NC([2H])([2H])[2H])nc(Nc2cc3c(c(C4=CCN(C)CCC4)c2)OCO3)n1` [Compound 254], for which the pIC50 at human EHMT2 913-1193, at human EHMT1 982-1266 and with H3K9me2 in HCT116 cells was above 7.00 throughout.
`CNc1cc(C)nc(Nc2cc3c(c(C4=CCC(N)CC4)c2)OCCC3)n1` (stereo not drawn) [Compound 346]: the pIC50 on human EHMT2 913-1193 is below 5.70; at human EHMT1 982-1266, 6.30 to 7.00; in the experiment on H3K9me2 in HCT116 cells, 6.30 to 7.00.
On to `COCCCNc1cc(C)nc(Nc2cc3c(c(C4=CCNCCC4)c2)OCC3)c1` [Compound 293], for which the pIC50 at human EHMT2 913-1193 is 6.30 to 7.00; on human EHMT1 982-1266 it was 6.30 to 7.00; in the experiment on H3K9me2 in HCT116 cells, 5.70 to 6.30.
As for `CNc1nc(Nc2cc3c(c(C4=CCNCCC4)c2F)OCC3)nc(C)c1Cl` [Compound 224], the pIC50 on human EHMT2 913-1193, on human EHMT1 982-1266 and in the experiment with H3K9me2 in HCT116 cells was above 7.00 throughout.

(Values after patent publication US20240368139A1, “NOVEL MODULATORS OF EHMT1 AND EHMT2 AND THERAPEUTIC USE THEREOF” (Tango Therapeutics, Inc., priority 2021, published 2024).)
